Results: patent US6911470B1, “Polyoxometalate compounds as antiviral agents” (priority 1988, dated 2005)

Tests used:
[1] = tested on: human PBM cells; test: Cytotoxicity assay on uninfected PHA stimulated human PBMC (trypan blue); assay type: cell-based; details: Table 2; >100 μM = Nontoxic; read-out: IC50 Toxicity PBM Cells
Protocol: Cells. […] PBS), and pelleted at 300×g for 10 minutes. […] Cytotoxicity assay. The drugs were evaluated for their potential toxic effects on uninfected PHA stimulated human PBMC. Flasks were seeded so that the final cell concentration was 2×10^5 cells/ml. The cells were cultured with and without drug for 6 days, at which time aliquots were counted for cell viability, as assessed by the trypan blue dye-exclusion method using a hemacytometer. The median inhibitory concentration (IC50) was calculated using the median effect method (Chou et al, Elsevier-Biosoft, Elsevier Science Publishers, Cambridge, U.K., 1985; Chou et al, Adv. Enz. Regul. 22, 27-55, 1984). Median-effect method. Dose-effect relationships were analyzed by the median-effect equation (Chou et al, Adv. Enz. Regul. 22, 27-55, 1984). The slope (m) and median effective and inhibitory concentration (EC50 and IC50) values were obtained by using a computer program developed by Chou and Chou (Chou et al, Elsevier-Biosoft, Elsevier Science Publishers, Cambridge, U.K., 1985).

[2] = molecular target: T1, HIV-1 reverse transcriptase (Human immunodeficiency virus type 1 group M subtype B, UniProt P04585); test: Evaluation of compounds on purified retroviral RT (cell-free, virion-derived); assay type: biochemical; details: Table 2; read-out: EC-50 Cell-Free RT (virion-derived)
T1 construct: HIV-1 RT was isolated from detergent disrupted virions; made in house; host or cells: virions pelleted from culture fluid of HIV-1-infected PHA-stimulated human PBMC; DEAE-cellulose and phosphocellulose chromatography
Protocol: Evaluation of compounds on purified retroviral RT. HIV-1 RT was isolated from detergent disrupted virions obtained from the cell-free supernatant of infected PHA-stimulated PBMC. The enzyme was purified by passing the extract through ion-exchange chromatography columns, as described previously (Eriksson et al, Antimicrob. Agents Chemother. 31, 600-604, 1977. Briefly, 750 ml of culture fluid harvested from HIV-1-infected PBMC were ultracentrifuged to pellet the virus. The pellet was dissolved in buffer A [50 mM Tris-HCl, pH 7.9/0.25% Nonidet P-40/5 mM dithiothreitol/20% (vol/vol) glycerol] containing 1 mM EDTA, and freeze-thawed four times. After clarification by centrifugation, the enzyme was partially purified from the supernatant by passing the extract through a DEAE-cellulose column (Whatman DE-52; 2.6×15 cm) previously equilibrated with buffer B (50 mM Tris-Cl, pH 7.9, 50 mM KCl, 1 mM EDTA, 1 mM dithiothreitol, 20% glycerol). Elution was performed using a linear gradient 50-500 mM KCl in buffer B. Fractions containing enzyme activity were dialyzed against buffer B and were further purified on a phosphocellulose column (Whatman P-11) using a linear KCl (50-500 mM) gradient in buffer B. The peak fractions were pooled and dialyzed against buffer B. The enzyme was characterized as HIV-1 reverse transcriptase based on its cation, salt, pH, and template requirements according to previous descriptions (Eriksson et al, Antimicrob. Agents Chemother. 31, 600-604, 1977). The standard reaction mixture was used to evaluate the inhibitory effect of the drugs, as previously described (Eriksson et al, Antimicrob. Agents Chemother. 31, 600-604, 1977). Briefly, the reaction mixtures (final volume 100 μl) contained 100 mM Tris-HCl, pH 8.0, 50 mM KCl, 2 mM MgCl2, 5 mM DTT, 400 ug/ml bovine serum albumin, 3 μg/ml (rA)·(dT)12-18 and 1 μM of [^3H]TTP (specific activity 82.3 Ci/mmol). The reactions were started by the addition of 10 μl of partially purified RT, incubated at 37° C. for 60 min., and processed as previously described (Eriksson et al, Antimicrob. Agents Chemother. 31, 600-604, 1977).
Median-effect method. Dose-effect relationships were analyzed by the median-effect equation (Chou et al, Adv. Enz. Regul. 22, 27-55, 1984). The slope (m) and median effective and inhibitory concentration (EC50 and IC50) values were obtained by using a computer program developed by Chou and Chou (Chou et al, Elsevier-Biosoft, Elsevier Science Publishers, Cambridge, U.K., 1985).

[3] = tested on: HSV-1; test: Plaque reduction assay for herpes simplex viruses in Vero cells; assay type: cell-based, herpes simplex virus type 1; details: Table 2; read-out: EC-50 HSV-1
Protocol: (§1) Cell culture assays for heroes simplex viruses. Mycoplasma-free Vero cells, obtained from Flow Laboratory (McLean, Va.), were used for the plaque assays. The methodologies for the plaque reduction and cytotoxicity assays have been previously described (Schinazi et al, Antimicrob. Agents Chemother. 22, 499-507, 1982). Median-effect method. Dose-effect relationships were analyzed by the median-effect equation (Chou et al, Adv. Enz. Regul. 22, 27-55, 1984). The slope (m) and median effective and inhibitory concentration (EC50 and IC50) values were obtained by using a computer program developed by Chou and Chou (Chou et al, Elsevier-Biosoft, Elsevier Science Publishers, Cambridge, U.K., 1985).

[4] = tested on: HSV-2; test: as above; assay type: cell-based, herpes simplex virus type 2; details: Table 2; read-out: EC-50 HSV-2
Protocol: as §1

[5] = tested on: Friend, Spleen (EY-10); test: UV/XC assay for murine retroviruses in SC-1 cells; assay type: cell-based, murine retrovirus; details: Table 2; read-out: EC-50 Friend, Spleen (EY-10)
Protocol: UV/XC Assay for Murine Retroviruses Cells. Mouse embryo fibroblasts (SC-1) and XC cells were obtained from the American Type Culture Collection, Rockville, Md. The XC cell line was derived from a transplantable tumor induced in newborn White-Weston rats by the intramuscular injection of the Prague strain of Rous sarcoma virus. […] The cells were maintained in Eagle's minimum essential medium with Hanks balanced salt solution, supplemented with penicillin (100 U/ml), streptomycin (100 μg/ml), sodium bicarbonate (24 mM), Hepes (25 mM), and either 2 (maintenance) or 10 (growth) percent inactivated newborn or fetal calf serum.
Virus quantitation by UV-XC assay. The XC test (Rowe et al, Virology 42, 1136-1139, 1970) is a plaque-type of assay which tests for the presence and titer of B- and N-tropic murine leukemia viruses. Because these viruses produce no overt signs of infection of SC-1 mouse cells, it is necessary to overlay the virus producing culture with an indicator cell line, XC. The number of syncytia that are produced is a direct measure of the virus titer in FFU.
Six-well plates were seeded with 1×10^5 SC-1 mouse cells on the first day. On the following day the medium was removed and the inoculum (0.2 ml) was added in medium containing polybrene (4 μg/ml). For determining the antiviral activity of the compounds in culture, the virus dilution selected produced in untreated cultures about 80 foci per well. After 1 hour, the virus was removed and various concentrations of the drug were added. The plates were replenished with medium on the third and fifth days. The medium was removed on the eighth day and the cells exposed to UV irradiation (60 erg/mm^2 per sec) for 30 seconds. Medium containing 10^6 XC cells was then added to each plate. On the eleventh day, the plates were fixed with 10% buffered Formalin and stained with crystal violet. Comparison of the number of foci to those found in virus-infected cells receiving no drug allowed determination of whether a drug at a particular concentration was effective. Control cells without virus but receiving the drug provided an estimate of the drug's toxic effects as quantitated by using trypan blue staining.

[6] = tested on: Vero cells; test: Cytotoxicity assay in Vero cells; assay type: cell-based; details: Table 2; >100 μM = Nontoxic; read-out: IC50 Toxicity Vero Cells
Description: Cell culture assays for heroes simplex viruses. Mycoplasma-free Vero cells, obtained from Flow Laboratory (McLean, Va.), were used for the plaque assays. The methodologies for the plaque reduction and cytotoxicity assays have been previously described (Schinazi et al, Antimicrob. Agents Chemother. 22, 499-507, 1982).

[7] = Comparison of toxicity of polyoxometalate compounds in mice (mortality, haematology); assay type: in vivo; design: MCV (mean corpuscular volume): unit not given here; details: BID × 6, 60 mkd i.p.
Description: Comparison of Toxicity of Polyoxometalate Compounds Mice.
In vivo antiviral experiments. […] Treatment was continued daily for 6 or 10 days.

[8] = tested on: human granulocyte-macrophage precursor cells; assay type: cell-based
Description: Preparation of Cells. Human bone marrow cells were collected by aspiration from the posterior iliac crest of normal healthy volunteers, treated with heparin and the mononuclear population separated by Ficoll-Hypaque gradient centrifugation. Cells were washed twice in Hanks balanced salt solution, counted with a hemacytometer and their viability was >98% as assessed by trypan blue exclusion.
Assay of Colony-Forming Unit Granulocyte-Macrophage (CFU-GM) for Drug Cytotoxicity. The culture assay for CFU-GM was performed using a bilayer soft-agar method as recently described (Sommadossi et al, Antimicrob. Agents Chemother. 31, 452-454, 1987). McCoy 5A nutrient medium supplemented with 15% dialyzed fetal bovine serum (heat inactivated at 56° C. for 30 min.) (Gibco Laboratories, Grand Island, N.Y.) was used in all experiments. This medium was completely lacking in thymidine and uridine. Cells were cloned in 0.3% agar in the presence of increasing concentrations of the modulating compound or in medium alone (control). After 14 days of incubation at 37° C. in a humidified atmosphere of 5% CO2 in air, colonies (≧50 cells) were counted using an inverted microscope.
The toxicities of a variety of polyoxometalates with respect to human bone marrow cells (human granulocyte-macrophage precursor cells) were assessed.

| Substance | IC50 [1] | EC50 [2] | EC50 [3] | EC50 [4] | EC50 [5] | IC50 [6] | Hct (hematocrit) ([7]; bled on day 17) | Hgb (hemaglobin) ([7]; bled on day 17) | MCH ([7]; bled on day 17) | MCHC (mean corpuscular hemoglobin concentration) ([7]; bled on day 17) | MCV (mean corpuscular volume) ([7]; bled on day 17) | PLT (platelates) (×1000) ([7]; bled on day 17) | RBC (×1000000) ([7]; bled on day 17) | RDW (width of red cells) ([7]; bled on day 17) | WBC (×1000) ([7]; bled on day 17) | Mortality ([7]; dead/total) | toxicity to human bone marrow cells (order of toxicity, FIG. 6) [8] |
| --- | --- | --- | --- | --- | --- | --- | --- | --- | --- | --- | --- | --- | --- | --- | --- | --- | --- |
| (LysH^+)q(H^+)5-qST, where q=1-5 [(LYSH^+)nH^+(4−n)ST] | 2450 µM | 20.5 µM | 0.32 µM | < 1 µM | 0.95 µM | > 100 µM |  |  |  |  |  |  |  |  |  |  |  |
| (NH4)4[SiW12O40] [NH4ST] |  |  |  |  |  |  | 17.47 ± 7.08% | 6.42 ± 2.39 g/dL | 17.6 ± 4.64 pg | 37.92 ± 9.82 g/dL | 43.38 ± 0.51 | 246.46 ×1000 | 3.76 ± 1.57 ×1000000 | 36.76 ± 2.63% | 7.18 ± 3.9 ×1000 | 0/5 | NH4BT (least toxic)<BT and NH4ST<AZT and ST |
